Experimental data as given in EP0408108A2, “Pharmaceutical compositions containing acrylic acid derivatives and their use in the medicine” (RICHTER GEDEON VEGYESZETI GYAR R.T., priority 1989, dated 1991).
≈ marks a conversion by molar mass, not a printed value.

Columns and labels:
gastric acid secretion = assay: Assay of the inhibition of gastric acid secretion by using pylorus ligature (Shay et al.); assay type: in vivo, Wistar rats; conditions: for inhibition at 10 mg/kg: read-out: % Inhibition in the amount of the acid at a dose of 10 mg/kg p.o. (pretreatment: 30 min)
Protocol: 3) Assay of the inhibition of gastric acid secretion -by using pylorus ligature
[Shay et al., Gastroenterology, 5, 43-61 (1945)]
Before ligating the pylorus the test compounds suspended with Tween were given orally at a volume of 0.5 ml per […] of body weight to female Wistar rats fasted previously for 20 hours. The animals were sacrificed 4 hours after the operation, and the amount of the acid in the stomach was measured by titration with 0.01N sodium hydroxide solution in the presence of phenolphtalein indicator. The pH value of the content of stomach was measured by using a pH-meter (Radelkis, Type OP-211/1).

[1] = system: gastric injuries induced by acidic alcohol; assay: Assay of gastric injuries induced by acidic alcohol (Robert); assay type: in vivo, rats; conditions: for inhibition at 10 mg/kg / ED50: Rattus norvegicus, po, pretreatment 30 min; for inhibition at 10 mg/kg: read-out: % Inhibition at a dose of 10 mg/kg p.o. (pretreatment: 30 min); for ED₅₀ p.o. (pretreatment: 30 min) / ED50: haemorrhagic lesions after acidic alcohol, female rats; for ED50: read-out: ED₅₀ p.o. (pretreatment: 30 min)
Protocol: 1) Assay of gastric injuries induced by acidic alcohol [A. Robert, Gastroenterology, 77, 761-767 (1979)] Female rats weighing about 120 to 150 g fasted for 24 hours were used in this test. Test compounds suspended with Tween 80 were given orally to the animals through an intragastric tube. After a certain period (pretreatment time) acidic alcohol was given through the intragastric tube at a dose or 0.5 ml per 100 g of body weight. The animals were sacrificed after 1 hour, their stomach was removed and incised along the great curve. The length of the reddish-brown strips (haemorrhagic lesions) was measured and the mean total length per stomach was calculated. The biological activity of the test compounds was given compared to the control group.

[2] = system: chronic ulcer model induced by acetic acid; assay: Assay of a chronic ulcer model induced by acetic acid (Tagaki et al); assay type: in vivo, rats; conditions: from day 5 to day 10 after operation, sacrificed day 15
Protocol: 2)Assay of a chronic ulcer model induced by acetic acid
The assay was carried out in the following manner. Abdominal wall of femal rats previously fasted for 24 hours was incised under ether anaesthesia. A 20% solution of acetic acid (25 µl) was injected to the subserosus layer of the glandular part of the stomach near the pylorus. Thereafter the abdominal wall was closed and the animal was kept on normal diet, by providing feed and water ad libitum. The treatment was started 5 days after the operation and continued until the 10th day by administering the test compound once a day The animals were sacrificed 15 days after the operation and their stomach was removed. The extent of the ulcer was determined by measuring the diameter of the necrotic regions and calculating their total area. The curative effect of the tested compounds was calculated by the following formula in %: [formula]

Campylobacter pylori = assay: Activity against Campylobacter pylori by agar diffusion and agar dilution methods; assay type: cell-based; conditions: Helicobacter pylori; Campylobacter pylori cultures isolated from 5 different ulcerous patients; read-out: MIC (minimal inhibitory concentration)
Protocol: The activity of the compounds of formula (I) against Campylobacter pylori was investigated by agar diffusion and agar dilution methods. The experiments were carried out with Campylobacter pylori cultures isolated from 5 different ulcerous patients.

[3] = Rattus norvegicus, po, 10 mg/kg p.o., pretreatment 30 min, acid titrated 4 hours after pylorus ligature
[4] = 10 mg/kg p.o., compared to the control group

Compound | inhibition at 10 mg/kg (gastric acid secretion; [3]) [%] | inhibition at 10 mg/kg [1, 4] [%] | ED50 [1] [mg/kg] | other results
O=C(O)/C=C\[S+]([O-])c1ccccc1 (stereo not drawn) [C, 3-phenylsulfinyl-2(Z)-propenoic acid] | 15 | 56 |  | 
Sucralfat [reference compound] |  |  |  | % Curative effect ([2]; 500 mg/kg p.o. once a day): 55%; ED₅₀ p.o. (pretreatment: 30 min) [1]: 150 mg/kg
O=C(O)/C=C/S(=O)(=O)c1ccccc1 [H, magnesium bis[3-phenylsulfonyl-2(E)-propenoate]hydrate] | 63 | 96 | 3.2 | % Curative effect ([2]; 30 mg/kg p.o. once a day): 27%; ED50 (gastric acid secretion; Rattus norvegicus, po, pretreatment 30 min, gastric acid secretion, pylorus ligature, 4 hours after operation, read-out: ED₅₀ p.o. (pretreatment: 30 min)): 10 mg/kg
O=C(O)/C=C/Sc1ccccc1 [G, magnesium bis[3-phenylthio-2(E)-propenoate]] | 16 |  |  | 
O=C(O)/C=C/[S+]([O-])c1ccccc1 (stereo not drawn) [Compound D, 3-phenylsulfinyl-2(E)-propenoic acid] | 22 | 64 | 4.2 | 
O=C(O)/C=C/Sc1ccccc1 [B, 3-phenylthio-2(E)-propenoic acid] |  |  | 31 | 
COC(=O)/C=C/S(=O)(=O)c1ccccc1 [I, methyl 3-phenylsulfonyl-2(E)-propenoate] | 21 | 98 |  | % Curative effect ([2]; 30 mg/kg p.o. once a day): 73%; MIC (Campylobacter pylori): 250 to 270 µg/mL (≈ 1100 to 1190 µM)
O=C(O)/C=C\S(=O)(=O)c1ccccc1 [Compound E, 3-phenylsulfonyl-2(Z)-propenoic acid] |  | 13 |  | 
O=C(O)/C=C/S(=O)(=O)c1ccccc1 [F, 3-phenylsulfonyl-2(E)-propenoic acid] |  |  |  | % Curative effect ([2]; 50 mg/kg p.o. once a day): 37%; % Inhibition in the amount of the acid at a dose of 10 mg/kg p.o. (pretreatment: 30 min) (gastric acid secretion; 10 mg/kg p.o., acid titrated 4 hours after pylorus ligature): 48%; ED₅₀ p.o. (pretreatment: 30 min) (gastric acid secretion; p.o., gastric acid secretion, pylorus ligature, 4 hours after operation): 12.0 mg/kg; % Inhibition at a dose of 10 mg/kg p.o. (pretreatment: 30 min) [1, 4]: 86%; ED₅₀ p.o. (pretreatment: 30 min) [1]: 3.4 mg/kg
